Where “and” joins values, the source holds several entries; their conditions need not be identical. Identical values can stand only once. Entries after “also recorded” stand apart in the source; their conditions may differ.
How the values were obtained:
[1] = tested on: shRNA PanK2 knockdown human neuroblastoma IMR32 cells; test: Intracellular CoA levels in shRNA PanK2 knockdown human neuroblastoma cells; type: cell-based; details: for Area Ratio, biological replicates 1-3 / Area Ratio, Mean / CoASH Fold Increase, Mean: Figure 3 data; for Area Ratio, biological replicates 1-3: PANK2-/- cells; for CoASH Fold Increase, Mean: over vehicle (1.00); for CoASH Area ratio / Total CoA Area ratio: Figure 4 data, 1 µM fosmetpantotenate, each line a biological replicate (well), analyzed 3 times
Protocol: The in vitro model to evaluate the efficacy of fosmetpantotenate and analogs was developed using a human neuroblastoma IMR32 cell line (ATCC) with stable PanK2 knockdown through lentiviral-delivered shRNA [23]. […] Cells were cultured in minimal essential media (MEM; Invitrogen), supplemented with 10% fetal bovine serum, 2 mM glutamine, 1% penicillin-streptomycin, 1 mM sodium pyruvate, 1 mM non-essential amino acids, 1.5 g/L sodium bicarbonate, and 1 μg/mL puromycin. […] At the end of the time period, cells were harvested, counted, collected in a 15 mL falcon tube, and centrifuged at 200xg for 5 min at 4°C.
For all incubations, the supernatant was removed and the cell pellet was resuspended in 10 mL of ice-cold phosphate buffered saline. […] The supernatant (100 μL) was placed in a separate tube and dried under nitrogen at 20°C in the dark. Samples were reconstituted with ammonium acetate buffer (pH 5.1) containing dextrorphan (50 ng/mL) as the internal standard, stirred for 2 min, sonicated in an ultrasonic bath for 1 min, and stirred again for 1 min before liquid chromatography-tandem mass spectrometry (LC-MS/MS) analysis for determination of intracellular CoA levels. Intracellular CoA concentration was calculated considering an intracellular volume of 10^6 cells equal to 2 μL. The measurement of the intracellular volume of cultured cells was performed following the distribution of [^14C]urea and [^14C]mannitol with time.
Coenzyme A determinations: An Agilent 1100 high-performance liquid chromatography (HPLC) system with a CTC PAL autosampler was used. Samples were chromatographed on a Phenomenex Luna C18 column (50 x 2.0 mm; 5 μm), with a 0.2 mL/min flow rate and a […] injection volume in a 5 μL injection loop. The mobile phases were (A) 10 mM ammonium acetate in water and (B) acetonitrile:2-propanol (9:1; v:v). […] A Sciex API 4000 QTrap mass spectrometer, connected to the HPLC system in tandem, with an electrospray ionization source operating in the positive scanning mode, was used for multiple reaction monitoring (MRM). […] The statistical significance of the treatment was determined using a t-test.

[2] = tested on: PanK2 knockdown cells (acetylated tubulin); test: Western blot analysis of acetylated tubulin; type: cell-based, human; details: for Tubulin Acetylation (fold of control): mean ± SD of 3 independent experiments, β-actin normalization; for Acetyl tubulin level (fold over vehicle): single experiments Exp1 (n=1), Exp2 (n=3), Exp3 (n=3), listed as RE-024; for Acetyl tubulin (quantification) / Acetyl tubulin Normalized (to actin): 1 µM fosmetpantotenate, replicates 1-2
Protocol: After incubation, the cells were lysed in RIPA buffer containing 300 mM NaCl, 10 mM Tris HCl pH 8.0, 10 mM KCl, 1 mM ethylenediaminetetraacetic acid (EDTA), 1% Nonidet-P40, 1% sodium deoxycholate, 0.1% SDS, 1 mM phenylmethanesulfonyl fluoride, and protease inhibitor cocktail (11697498001, Roche, Indianapolis, IN), and sonicated on ice with a Branson 450 sonicator through 2 cycles of ten 2s pulses (1 min pause between cycles). Total protein concentration was determined using a Bio-Rad Protein Assay (500–0006, Biorad, Hercules, CA). Cell extracts were subjected to sodium dodecyl sulfate polyacrylamide gel electrophoresis (SDS-PAGE) analysis (4–12%, NP0335BOX, Life Technologies, Great Island, NY) and transferred to a nitrocellulose membrane (10401396, Whatman, Maidstone, UK). Immunostaining was accomplished by overnight incubation with primary antibodies followed by 1 h of incubation with dye-conjugated secondary antibodies according to the manufacturer’s instructions. Protein detection was achieved using an Infrared Odyssey system (LiCor, Lincoln, NE). Densitometric analysis of western blots was performed using ImageJ software; the statistical significance was determined using a t-test. Actin was used as a normalization probe.

[3] = Stability in simulated gastric fluid; type: in vitro ADME; details: simulated gi fluid; pH 1.2; 3.2 mg/mL pepsin; 10 μM; read-out: half-life (t½) in simulated gastric fluid
Protocol: Stability in simulated gastric fluid: A stock solution of fosmetpantotenate or its individual diastereomers was prepared in 0.1% formic acid in methanol. Simulated gastric fluid, pH 1.2, was prepared with 2 g/L sodium chloride, 3.2 g/L of pepsin, and 0.7% (v/v) HCl. Gastric buffer, pH 1.2, was prepared containing 2 g/L sodium chloride and 0.7% (v/v) HCl. An appropriate aliquot of fosmetpantotenate or individual diastereomers to yield an initial concentration of 10 μM was added to both fluids, and samples were mixed at ~25°C on an orbital shaker. Aliquots (50 μL) were taken at 0, 2, and 4 h; added to 150 μL dimethyl sulfoxide (DMSO) containing an analytical internal standard; vortexed; and analyzed immediately by LC-MS/MS.
Bioanalysis for determinations of analyte stability: Samples were analyzed using a benchtop tandem quadrupole detector (TQD) mass spectrometer (Waters Ltd, Centennial Park, Hertfordshire). […] Suitable retention and peak shape with separation of the 2 diastereomers were obtained. The chromatography column was a Phenomenex-Kinetex XB C18 (2.10 x 50 mm; 2.6 μm), with a 0.7 mL/min flow rate and a 2 μL injection volume. […] The gradient was initiated with 20% B and increased linearly, reaching 40% B at 0.6 min, followed by 50% B at 0.8 min and by 95% B at 0.9 min. Conditions were kept isocratic through 1.2 min, returned to starting conditions (20% B) at 1.25 min, and maintained at 20% B through 1.5 min before the next injection. Since fosmetpantotenate is a mixture of diastereomers which are resolved chromatographically, the fosmetpantotenate MRM area corresponds to the sum of the MRM areas of the individual diastereomers.
The percent of compound remaining was determined from the MRM area response in each sample relative to that in the T = 0 samples (normalized for internal standard). Natural log plots of the percent compound remaining over time were used to determine the t½ of compound disappearance using the relationship t½ = -0.693/λ, where λ is the slope of the natural logarithm of the percent compound remaining vs time curve.

Compound: COC(=O)CCNC(=O)[C@H](O)C(C)(C)COP(=O)(N[C@@H](C)C(=O)OC)Oc1ccccc1 (mixture of isomers) [Fosmetpantotenate]
- change in the level of free CoA ([1]; 1 μM TID for 5 days): little change; also recorded: little effect
- Area Ratio, biological replicates 1-3 ([1]; compound conc 12.5 µM): 0.109 and 0.098 and 0.112
- Area Ratio, biological replicates 1-3 ([1]; compound conc 25 µM): 0.141 and 0.129 and 0.135
- Area Ratio, biological replicates 1-3 ([1]; compound conc 50 µM): 0.159 and 0.189 and 0.167
- Area Ratio, biological replicates 1-3 ([1]; compound conc 100 µM): 0.157 and 0.186 and 0.139
- Area Ratio, biological replicates 1-3 ([1]; compound conc 200 µM): 0.243 and 0.294 and 0.241
- Area Ratio, Mean ([1]; concentration 12.5 µM): 0.081
- Area Ratio, Mean ([1]; concentration 25 µM): 0.111
- Area Ratio, Mean ([1]; concentration 50 µM): 0.141
- Area Ratio, Mean ([1]; concentration 100 µM): 0.127
- Area Ratio, Mean ([1]; concentration 200 µM): 0.216
- CoASH Fold Increase, Mean ([1]; concentration 25 µM): 1.25
- CoASH Fold Increase, Mean ([1]; concentration 50 µM): 2.00
- CoASH Fold Increase, Mean ([1]; concentration 100 µM): 2.27
- CoASH Fold Increase, Mean ([1]; concentration 200 µM): 2.41
- CoASH Area ratio ([1]; Day 1): 0.0013 (2×) and 0.0014 and 0.0011 and 0.0012 (2×) and 0.0018 and 0.0019 (2×)
- Total CoA Area ratio ([1]; Day 1): 0.0238 and 0.0248 and 0.0256 and 0.0250 and 0.0258 and 0.0229 and 0.0233 and 0.0235
- CoASH Area ratio ([1]; Day 3): 0.0035 and 0.0037 (2×) and 0.0024 and 0.0025 and 0.0026 and 0.0022 and 0.0023 (2×)
- Total CoA Area ratio ([1]; Day 3): 0.0360 and 0.0361 and 0.0365 and 0.0359 and 0.0368 and 0.0185 and 0.0353 and 0.0367
- CoASH Area ratio ([1]; Day 5): 0.0029 and 0.0031 (2×) and 0.0024 (2×) and 0.0025 and 0.0019 and 0.0020 (2×)
- Total CoA Area ratio ([1]; Day 5): 0.0314 and 0.0330 (2×) and 0.0343 and 0.0336 and 0.0342
- change in acetyl tubulin ([2]; 1 μM TID, day 1): statistically significant decrease
- increase in acetyl tubulin ([2]; 1 μM TID, day 5): ~ 1.6 fold
- Tubulin Acetylation (fold of control) ([2]; 25 μM): 2.32 ± 0.64 fold of control
- Acetyl tubulin level (fold over vehicle) ([2]; 25 µM): 1.86 fold over vehicle and 2.77 ± 0.13 fold over vehicle
- Tubulin Acetylation (fold of control) ([2]; 50 μM): 3.68 ± 1.13 fold of control
- Acetyl tubulin level (fold over vehicle) ([2]; 50 µM): 3.02 fold over vehicle and 3.03 ± 0.05 fold over vehicle and 4.99 ± 0.03 fold over vehicle
- Tubulin Acetylation (fold of control) ([2]; 200 μM): 5.12 ± 2.57 fold of control
- Acetyl tubulin (quantification) ([2]; Experiment 1, DAY 1): 5352.933 and 4967.69
- Acetyl tubulin Normalized (to actin) ([2]; Experiment 1, DAY 1): 1.0
- Acetyl tubulin (quantification) ([2]; Experiment 1, DAY 3): 5869.761 and 6720.347
- Acetyl tubulin Normalized (to actin) ([2]; Experiment 1, DAY 3): 1.2 and 1.5
- Acetyl tubulin (quantification) ([2]; Experiment 1, DAY 5): 9323.933 and 10851.882
- Acetyl tubulin Normalized (to actin) ([2]; Experiment 1, DAY 5): 2.0 and 2.1
- Acetyl tubulin (quantification) ([2]; Experiment 2, DAY 1): 2820.548 and 2422.355
- Acetyl tubulin Normalized (to actin) ([2]; Experiment 2, DAY 1): 1.1 and 1.0
- Acetyl tubulin (quantification) ([2]; Experiment 2, DAY 3): 5646.447 and 4155.426
- Acetyl tubulin Normalized (to actin) ([2]; Experiment 2, DAY 3): 2.6
- Acetyl tubulin (quantification) ([2]; Experiment 2, DAY 5): 4976.426 and 5163.962
- Acetyl tubulin Normalized (to actin) ([2]; Experiment 2, DAY 5): 2.2 and 1.9
- half-life at 10 μM [3]: > 600 min

— PMC5844530, “Fosmetpantotenate (RE-024), a phosphopantothenate replacement therapy for pantothenate kinase-associated neurodegeneration: Mechanism of action and efficacy in nonclinical models” (PLoS ONE, 2018)
